From patent US12077501B2, “Compounds and compositions for intracellular delivery of agents” (ModernaTX, Inc., priority 2017, dated 2024)

Columns and labels:
[1] = Lipid clearance: % dose remaining in liver of CD-1 mice; type: in vivo; details: intravenous, 0.5 mg/kg, CD-1 mouse, Table 8a
Description: In contrast, hEPO expression in rats induced by administration of a nanoparticle composition including a compound according to one of formulae (I), (Ia1)-(Ia6), (Ib), (II), (IIa), (III), and (IIIa) was substantially […] than that measured for MC3. […] Tables 7c and 7d show additional protein expressions and clearance data from compositions with various compounds disclosed herein as compared to with MC3. Tables 7e, 7f and 7g show hEPO expression data in CD-1 mice at a dose of 0.5 mpk.

[2] = pKa of nanoparticle compositions; type: physicochemical
[3] = Lipid purity change after storage in EtOH for 96 h at 25 or 37 °C; type: physicochemical
Experimental: Nanoparticle compositions including a therapeutic and/or prophylactic agent can be optimized according to the selection of a compound according to one of formulae (I), (Ia1)-(Ia10), (Ib), (Ic), (Id), (Id1)-(Id10), (Ie), (Ie1)-(Ie6), (II), (IIa), (III), and (IIIa), the selection of additional lipids, the amount of each lipid in the lipid component, and the wt:wt ratio of the lipid component to the therapeutic and/or prophylactic agent, as described herein. Initial studies were performed to compare the delivery efficiency of nanoparticle compositions including various compounds according to one of formulae (I), (Ia1)-(Ia10), (Ib), (Ic), (Id), (Id1)-(Id10), (Ie), (Ie1)-(Ie6), (II), (IIa), (III), and (IIIa). The cationic lipid MC3 is a current standard in the art. Also determined was the stability of nanoparticles of the disclosure, i.e., the purity after storage in EtOH for 96h at 25° C. or 37° C. (Table Id).

[4] = Encapsulation efficiency of RNA (QUANT-IT RIBOGREEN RNA assay); type: physicochemical; details: Table 1c; nanoparticle compositions
Experimental: For nanoparticle compositions including an RNA, a QUANT-IT™ RIBOGREEN® RNA assay (Invitrogen Corporation Carlsbad, CA) can be used to evaluate the encapsulation of an RNA by the nanoparticle composition. The samples are diluted to a concentration of approximately 5 μg/mL in a TE buffer solution (10 mM Tris-HCl, 1 mM EDTA, pH 7.5). 50 μL of the diluted samples are transferred to a polystyrene 96 well plate and either 50 μL of TE buffer or 50 μL of a 2% Triton X-100 solution is added to the wells. The plate is incubated at a temperature of 37° C. for 15 minutes. The RIBOGREEN® reagent is diluted 1:100 in TE buffer, and 100 μL of this solution is added to each well. The fluorescence intensity can be measured using a fluorescence plate reader (Wallac Victor 1420 Multilablel Counter; Perkin Elmer, Waltham, MA) at an excitation wavelength of, for example, about 480 nm and an emission wavelength of, for example, about 520 nm. The fluorescence values of the reagent blank are subtracted from that of each of the samples and the percentage of free RNA is determined by dividing the fluorescence intensity of the intact sample (without addition of Triton X-100) by the fluorescence value of the disrupted sample (caused by the addition of Triton X-100).

[5] = Particle size and polydispersity index of nanoparticle compositions (Zetasizer Nano ZS); type: physicochemical; details: Table 1c; nanoparticle compositions
Experimental: A Zetasizer Nano ZS (Malvem Instruments Ltd, Malvem, Worcestershire, UK) can be used to determine the particle size, the polydispersity index (PDI) and the zeta potential of the nanoparticle compositions in 1×PBS in determining particle size and 15 mM PBS in determining zeta potential.

Structure (SMILES)	% Dose Remaining 6 hr [1]	% Dose Remaining 24 hr [1]	pKa ([2]; Table 1b)	Lipid % change purity in EtOH, 25° C., 96 h [3]	Lipid % change purity in EtOH, 37° C., 96 h [3]	EE (%) [4]	pKa ([2]; Table 1c)	PDI [5]	Size (nm) [5]
CCCCCCCCCN(CCCC(=O)OCCCCC)CCC1CCN(C(=O)CN(CCCCCCCCC)CCN(CCCCCCCCC)CCCCCCCCC)CC1 [Compound 83, Pentyl 4-((2-(1-(N-(2-(dinonylamino)ethyl)-N-nonylglycyl)piperidin-4-yl)ethyl)(nonyl)amino)butanoate]	31.32%	30.54%	6.72						
CCCCCCCCCN(CCCC(=O)OCCCCC)CCCC1CCN(C(=O)CCN(CCCCCCCCC)CCN(CCCCCCCCC)CCCCCCCCC)CC1 [Compound 84, Pentyl 4-((3-(1-(3-((2-(dinonylamino)ethyl)(nonyl)amino)propanoyl)piperidin-4-yl)propyl)(nonyl)amino)butanoate]	21.23%	20.86%	7.01						
CCCCCCCCCN(CCCCCCCCC)CCCC1CCN(C(=O)CCN(CCCCCCCCC)CCN(CCCCCCCCC)CCCCCCCCC)CC1 [Compound 85, 3-((2-(Dinonylamino)ethyl)(nonyl)amino)-1-(4-(3-(dinonylamino)propyl)piperidin-1-yl)propan-1-one]	52.40%	53.65%	6.74						
CCCCCCCCCN(CCCOC(=O)CCCCC)CCC(=O)N1CCN(C(=O)CCN(CCCCCCCCC)CCN(CCCCCCCCC)CCCCCCCCC)CC1 [Compound 86, 3-((3-(4-(3-((2-(Dinonylamino)ethyl)(nonyl)amino)propanoyl)piperazin-1-yl)-3-oxopropyl)(nonyl)amino)propyl hexanoate]	0.16%	0.12%	7.58	8.1%	20.8%				
CCCCCCCCCN(CCCOC(=O)CCCCC)CCCC1CCN(C(=O)CCN(CCCCCCCCC)CCN(CCCCCCCCC)CCCCCCCCC)CC1 [Compound 87, 3-((3-(1-(3-((2-(Dinonylamino)ethyl)(nonyl)amino)propanoyl)piperidin-4-yl)propyl)(nonyl)amino)propyl Hexanoate]	0.07%	0.05%	6.79						
CCCCCCCCCN(CCCCCCCCC)CCN(CCCCCCCCC)CCOC(=O)C1CCN(C(=O)CN(CCCCCCCCC)CCCCCCCCC)CC1 [Compound 129, 2-((2-(Dinonylamino)ethyl)(nonyl)amino)ethyl 1-(dinonylglycyl)piperidine-4-carboxylate]		9.10%		8.46%	15.47%	96.9%	5.17	0.24	70.3 nm
CCCCCCCCCN(CCCCCCCCC)CCN(CCCCCCCCC)CC(=O)N1CCN(C(=O)CN(CCCCCCCCC)CC(C)COC(=O)CCCCC)CC1 (centres unmarked) [Compound 130, 3-((2-(4-(N-(2-(Dinonylamino)ethyl)-N-nonylglycyl)piperazin-1-yl)-2-oxoethyl)(nonyl)amino)-2-methylpropyl hexanoate]		2.33%		3.54%	4.46%	98.0%	6.90	0.23	84.9 nm
CCCCCCCCCN(CCCCCCCCC)CCN(CCCCCCCCC)CC(=O)N1CCN(C(=O)CN(CCCCCCCCC)CCCOC(=O)CC(C)CCC)CC1 (centres unmarked) [Compound 131, 3-((2-(4-(N-(2-(Dinonylamino)ethyl)-N-nonylglycyl)piperazin-1-yl)-2-oxoethyl)(nonyl)amino)propyl 3-methylhexanoate]		80.27%		11.96%	12.43%	98.5%	7.02	0.17	85.4 nm
CCCCCCCCCN(CCCCCCCCC)CCN(CCCCCCCCC)CC(=O)N1CCC(CCN(CCCCCCCCC)CC(C)COC(=O)CCCCC)CC1 (centres unmarked) [Compound 132, 3-((2-(1-(N-(2-(Dinonylamino)ethyl)-N-nonylglycyl)piperidin-4-yl)ethyl)(nonyl)amino)-2-methylpropyl hexanoate]		0.81%		1.84%	5.54%	98.6%	6.49	0.23	83.1 nm
CCCCCCCCCN(CCCOC(=O)CC(C)CCC)CCC1CCN(C(=O)CN(CCCCCCCCC)CCN(CCCCCCCCC)CCCCCCCCC)CC1 (centres unmarked) [Compound 133, 3-((2-(1-(N-(2-(Dinonylamino)ethyl)-N-nonylglycyl)piperidin-4-yl)ethyl)(nonyl)amino)propyl 3-methylhexanoate]		13.02%					6.58		
CCCCCCCCCN(CCCCCCCCC)CCN(CCCCCCCCC)CC(=O)N1CCN(C(=O)CN(CCCCCCCCC)CCCC(=O)SCCCCC)CC1 [Compound 134, S-Pentyl 4-((2-(4-(N-(2-(dinonylamino)ethyl)-N-nonylglycyl)piperazin-1-yl)-2-oxoethyl)(nonyl)amino)butanethioate]		33.71%		1.60%	11.81%	96.7%	6.85	0.21	82.1 nm
CCCCCCCCCCCCN(CCCOC(=O)CCCCCCC)CC(=O)N1CCN(C(=O)CN(CCCCCCCCC)CCN(CCCCCCCCC)CCCCCCCCC)CC1 [Compound 135, 3-((2-(4-(N-(2-(Dinonylamino)ethyl)-N-nonylglycyl)piperazin-1-yl)-2-oxoethyl)(dodecyl)amino)propyl Octanoate]		0.16%		2.26%	4.09%	98.6%	6.90	0.22	81.1 nm
CCCCC/C=C\CCN(CC/C=C\CCCCC)CCN(CC/C=C\CCCCC)CC(=O)N1CCN(C(=O)CN(CCCCCCCCC)CCCCCCCCC)CC1 [Compound 136, 2-((2-(Di((Z)-non-3-en-1-yl)amino)ethyl)((Z)-non-3-en-1-yl)amino)-1-(4-(dinonylglycyl)piperazin-1-yl)ethan-1-one]		56.18%		−0.71%	0.77%	97.7%	6.13	0.23	72.1 nm
